ChEMBL document CHEMBL1146975, “Identification of cytotoxic, T-cell-selective 1,4-benzodiazepine-2,5-diones” (Bioorg Med Chem Lett, 2006)

Tests used:
[1] = system: Ramos; experiment: Cytotoxicity against human Ramos B cells; assay type: functional, cell-based
[2] = system: Jurkat; experiment: Cytotoxicity against human Jurkat T cells; assay type: functional, cell-based
[3] = Selectivity for Jurkat T cells over Ramos B cells; assay type: functional

CN1C(=O)C(Cc2ccc(-c3ccccc3[N+](=O)[O-])cc2)NC(=O)c2cc(Cl)ccc21 (stereo not drawn)
EC50 [1]: > 20 µM
EC50 [2]: > 20 µM

CN1C(=O)C(Cc2ccc(-c3cccc(Cl)c3)cc2)NC(=O)c2cc(Cl)ccc21 (stereo not drawn)
EC50 [1]: 1.5 µM
EC50 [2]: 2 µM
Ratio EC50 [3]: 0.8

CN1C(=O)C(Cc2ccc(-c3ccc(O)cc3)cc2)NC(=O)c2cc(Cl)ccc21 (stereo not drawn)
EC50 [1]: 6 µM
EC50 [2]: 1.5 µM
Ratio EC50 [3]: 4

Cc1ccc(-c2ccc(CC3NC(=O)c4cc(Cl)ccc4N(C)C3=O)cc2)cc1 (stereo not drawn)
EC50 [1]: 6.9 µM
EC50 [2]: 3.6 µM
Ratio EC50 [3]: 1.9

CN1C(=O)C(Cc2ccc3ccccc3c2)NC(=O)c2cc(Cl)ccc21 (stereo not drawn)
EC50 [1]: 10.7 µM
EC50 [2]: 3 µM

CN1C(=O)C(Cc2cccc3ccccc23)NC(=O)c2cc(Cl)ccc21 (stereo not drawn)
EC50 [1]: 12.6 µM
EC50 [2]: 20.5 µM

CN1C(=O)C(Cc2ccccc2)NC(=O)c2cc(Cl)ccc21 (stereo not drawn)
EC50 [1]: > 100 µM
EC50 [2]: > 80 µM

CN1C(=O)C(Cc2ccc(-c3ccccc3)cc2)NC(=O)c2cc(Cl)ccc21 (stereo not drawn)
EC50 [1]: 6.2 µM
EC50 [2]: 2.3 µM

CN1C(=O)C(Cc2ccc(-c3cccc(O)c3)cc2)NC(=O)c2cc(Cl)ccc21 (stereo not drawn)
EC50 [1]: 4 µM
EC50 [2]: 1.5 µM
Ratio EC50 [3]: 2.7

CN1C(=O)C(Cc2ccc(-c3ccc(Cl)cc3)cc2)NC(=O)c2cc(Cl)ccc21 (stereo not drawn)
EC50 [1]: 6.5 µM
EC50 [2]: 6.5 µM
Ratio EC50 [3]: 1

Cc1cccc(-c2ccc(CC3NC(=O)c4cc(Cl)ccc4N(C)C3=O)cc2)c1 (stereo not drawn)
EC50 [1]: 2.8 µM
EC50 [2]: 3.1 µM
Ratio EC50 [3]: 0.9

CN1C(=O)C(Cc2ccc(-c3ccc(Br)cc3)cc2)NC(=O)c2cc(Cl)ccc21 (stereo not drawn)
EC50 [1]: > 20 µM
EC50 [2]: 9.8 µM
Ratio EC50 [3]: >2

CN1C(=O)C(Cc2ccc(-c3cccc(C(=O)O)c3)cc2)NC(=O)c2cc(Cl)ccc21 (stereo not drawn)
EC50 [1]: > 20 µM
EC50 [2]: > 20 µM

CN1C(=O)C(Cc2ccc(C(C)(C)C)cc2)NC(=O)c2cc(Cl)ccc21 (stereo not drawn)
EC50 [1]: 16.2 µM
EC50 [2]: 8.2 µM

CN1C(=O)C(Cc2cccc(-c3ccccc3)c2)NC(=O)c2cc(Cl)ccc21 (stereo not drawn)
EC50 [1]: 19.1 µM
EC50 [2]: 5.4 µM

CN1C(=O)C(Cc2c[nH]c3ccccc23)NC(=O)c2cc(Cl)ccc21 (stereo not drawn)
EC50 [1]: 9.2 µM
EC50 [2]: 26.2 µM

CN1C(=O)C(Cc2ccc(-c3ccoc3)cc2)NC(=O)c2cc(Cl)ccc21 (stereo not drawn)
EC50 [1]: 2 µM
EC50 [2]: 0.3 µM
Ratio EC50 [3]: 6.5

CN1C(=O)C(Cc2ccc(-c3ccccc3Cl)cc2)NC(=O)c2cc(Cl)ccc21 (stereo not drawn)
EC50 [1]: 10.3 µM
EC50 [2]: 8.3 µM
Ratio EC50 [3]: 1.2

CN1C(=O)C(Cc2ccc(-c3ccc([N+](=O)[O-])cc3)cc2)NC(=O)c2cc(Cl)ccc21 (stereo not drawn)
EC50 [1]: 10 µM
EC50 [2]: 3.8 µM
Ratio EC50 [3]: 2.6

Cc1ccccc1-c1ccc(CC2NC(=O)c3cc(Cl)ccc3N(C)C2=O)cc1 (stereo not drawn)
EC50 [1]: 6.7 µM
EC50 [2]: 5.4 µM
Ratio EC50 [3]: 1.2

CN1C(=O)C(Cc2ccc(/C=C/c3ccccc3)cc2)NC(=O)c2cc(Cl)ccc21 (stereo not drawn)
EC50 [1]: 50.3 µM
EC50 [2]: 7.5 µM

CN1C(=O)C(Cc2ccc(-c3ccc(C(=O)O)cc3)cc2)NC(=O)c2cc(Cl)ccc21 (stereo not drawn)
EC50 [1]: 31.8 µM
EC50 [2]: 15.1 µM
Ratio EC50 [3]: 2.1

CN1C(=O)C(Cc2ccc(-c3ccc(C(F)(F)F)cc3)cc2)NC(=O)c2cc(Cl)ccc21 (stereo not drawn)
EC50 [1]: 4.8 µM
EC50 [2]: 5.2 µM
Ratio EC50 [3]: 0.9

CN1C(=O)C(Cc2ccc(-c3cccc(Br)c3)cc2)NC(=O)c2cc(Cl)ccc21 (stereo not drawn)
EC50 [1]: 9.2 µM
EC50 [2]: 4.8 µM
Ratio EC50 [3]: 1.9

CN1C(=O)C(Cc2ccc(-c3cccc(C(F)(F)F)c3)cc2)NC(=O)c2cc(Cl)ccc21 (stereo not drawn)
EC50 [1]: 4 µM
EC50 [2]: 4.5 µM
Ratio EC50 [3]: 0.9

CN1C(=O)C(CCc2ccccc2)NC(=O)c2cc(Cl)ccc21 (stereo not drawn)
EC50 [1]: > 100 µM
EC50 [2]: > 80 µM

CN1C(=O)C(Cc2ccc(-c3cccnc3)cc2)NC(=O)c2cc(Cl)ccc21 (stereo not drawn)
EC50 [1]: 6 µM
EC50 [2]: 0.6 µM
Ratio EC50 [3]: 10

CN1C(=O)C(Cc2ccc(-c3cccc([N+](=O)[O-])c3)cc2)NC(=O)c2cc(Cl)ccc21 (stereo not drawn)
EC50 [1]: 4.2 µM
EC50 [2]: 1.5 µM
Ratio EC50 [3]: 2.8

CN1C(=O)C(Cc2ccccc2Cc2ccccc2)NC(=O)c2cc(Cl)ccc21 (stereo not drawn)
EC50 [1]: 18.6 µM
EC50 [2]: 17.6 µM

CN1C(=O)C(Cc2ccc(-c3ccncc3)cc2)NC(=O)c2cc(Cl)ccc21 (stereo not drawn)
EC50 [1]: 3 µM
EC50 [2]: 0.5 µM
Ratio EC50 [3]: 6
